# In PubChem BioAssay AID330 (DTP/NCI, 2004):
# Several values for one entry are separate records, joined by “and”; a condition that tells them apart may be missing. Equal values may be shown once. Inconclusive results and toxic doses are left out.
# Test system: P388 leukemia ip, CD2F1 mice, survival T/C
# Experiment: NCI In Vivo Anticancer Drug Screen. Data for tumor model P388 Leukemia (intraperitoneal) in CD2F1 (CDF1) mice
# Conditions: endpoint: median survival time, higher = longer survival
# In short: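 Mice carrying the transplanted tumor received test compound or vehicle. Survival was recorded in each group, and the value is the treated-group measurement divided by that of the vehicle-treated control group.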
compound,measurement,setting,value
N#CN(Cc1ccccc1)C(c1ccccc1)(c1ccccc1)c1ccccc1,T/C,"dose: 100.0 mg/kg/injection, schedule: Q01DX001 (ip), vehicle: Klucel (hydroxypropylcellulose) (HPC)",90 % of control
same,T/C,"dose: 200.0 mg/kg/injection, schedule: Q01DX001 (ip), vehicle: Klucel (hydroxypropylcellulose) (HPC)",91 % of control
COc1cccc2c1C(=O)c1c(O)c3c(c(O)c1C2=O)CC(O)(C(C)O)CC3 (centres undefined),T/C,"dose: 1.0 mg/kg/injection, schedule: Q01DX009 (ip), vehicle: Klucel (hydroxypropylcellulose) (HPC)",102 % of control
same,T/C,"dose: 2.0 mg/kg/injection, schedule: Q01DX009 (ip), vehicle: Klucel (hydroxypropylcellulose) (HPC)",99 % of control
same,T/C,"dose: 4.0 mg/kg/injection, schedule: Q01DX009 (ip), vehicle: Klucel (hydroxypropylcellulose) (HPC)",95 % of control
same,T/C,"dose: 8.0 mg/kg/injection, schedule: Q01DX009 (ip), vehicle: Klucel (hydroxypropylcellulose) (HPC)",92 % of control
COc1ccc2[nH]c3ccc4cc[n+](CCN5CCC(C6CCN(CC[n+]7ccc8ccc9[nH]c%10ccc(OC)cc%10c9c8c7)CC6)CC5)cc4c3c2c1,T/C,"dose: 1.0 mg/kg/injection, schedule: Q01DX005 (ip), vehicle: water",165 % of control
same,T/C,"dose: 1.56 mg/kg/injection, schedule: Q01DX005 (ip), vehicle: Klucel (hydroxypropylcellulose) (HPC)",159 % of control and 160 % of control
same,T/C,"dose: 2.0 mg/kg/injection, schedule: Q01DX005 (ip), vehicle: water",160 % of control and 170 % of control
same,T/C,"dose: 3.12 mg/kg/injection, schedule: Q01DX005 (ip), vehicle: Klucel (hydroxypropylcellulose) (HPC)",150 % of control and 166 % of control
same,T/C,"dose: 4.0 mg/kg/injection, schedule: Q01DX005 (ip), vehicle: water",161 % of control and 182 % of control
same,T/C,"dose: 6.25 mg/kg/injection, schedule: Q01DX005 (ip), vehicle: Klucel (hydroxypropylcellulose) (HPC)",167 % of control and 169 % of control
same,T/C,"dose: 6.25 mg/kg/injection, schedule: Q01DX005 (ip), vehicle: other",161 % of control
same,T/C,"dose: 8.0 mg/kg/injection, schedule: Q01DX005 (ip), vehicle: water",163 % of control and 173 % of control and 191 % of control
same,T/C,"dose: 12.5 mg/kg/injection, schedule: Q01DX005 (ip), vehicle: Klucel (hydroxypropylcellulose) (HPC)",179 % of control and 201 % of control
same,T/C,"dose: 12.5 mg/kg/injection, schedule: Q01DX005 (ip), vehicle: other",193 % of control
same,T/C,"dose: 16.0 mg/kg/injection, schedule: Q01DX005 (ip), vehicle: water",160 % of control and 190 % of control and 221 % of control
same,T/C,"dose: 25.0 mg/kg/injection, schedule: Q01DX005 (ip), vehicle: Klucel (hydroxypropylcellulose) (HPC)",179 % of control and 200 % of control and 212 % of control
same,T/C,"dose: 25.0 mg/kg/injection, schedule: Q01DX005 (ip), vehicle: other",175 % of control and 204 % of control
same,T/C,"dose: 32.0 mg/kg/injection, schedule: Q01DX005 (ip), vehicle: water",167 % of control and 185 % of control and 223 % of control
same,T/C,"dose: 50.0 mg/kg/injection, schedule: Q01DX005 (ip), vehicle: Klucel (hydroxypropylcellulose) (HPC)",160 % of control and 224 % of control and 255 % of control
same,T/C,"dose: 50.0 mg/kg/injection, schedule: Q01DX005 (ip), vehicle: other",153 % of control and 160 % of control
same,T/C,"dose: 100.0 mg/kg/injection, schedule: Q01DX005 (ip), vehicle: Klucel (hydroxypropylcellulose) (HPC)",193 % of control
same,T/C,"dose: 200.0 mg/kg/injection, schedule: Q01DX005 (ip), vehicle: Klucel (hydroxypropylcellulose) (HPC)",112 % of control
COc1ccc(S(N)(=O)=O)cc1[N+](=O)[O-],T/C,"dose: 100.0 mg/kg/injection, schedule: Q04DX003 (ip), vehicle: Klucel (hydroxypropylcellulose) (HPC)",97 % of control
same,T/C,"dose: 200.0 mg/kg/injection, schedule: Q04DX003 (ip), vehicle: Klucel (hydroxypropylcellulose) (HPC)",104 % of control
same,T/C,"dose: 400.0 mg/kg/injection, schedule: Q04DX003 (ip), vehicle: Klucel (hydroxypropylcellulose) (HPC)",97 % of control
O=C(/C=C\c1ccc(C2OCCO2)cc1)c1ccccc1,T/C,"dose: 100.0 mg/kg/injection, schedule: Q04DX002 (ip), vehicle: saline with Tween-80",111 % of control
same,T/C,"dose: 200.0 mg/kg/injection, schedule: Q04DX002 (ip), vehicle: saline with Tween-80",103 % of control
same,T/C,"dose: 400.0 mg/kg/injection, schedule: Q04DX002 (ip), vehicle: saline with Tween-80",92 % of control
CS(=O)(=O)OCCN1C(=O)CNC1=O,T/C,"dose: 12.5 mg/kg/injection, schedule: Q04DX003 (ip), vehicle: saline",99 % of control
same,T/C,"dose: 25.0 mg/kg/injection, schedule: Q04DX003 (ip), vehicle: saline",106 % of control
same,T/C,"dose: 50.0 mg/kg/injection, schedule: Q04DX003 (ip), vehicle: saline",99 % of control
same,T/C,"dose: 100.0 mg/kg/injection, schedule: Q04DX003 (ip), vehicle: saline",101 % of control
same,T/C,"dose: 200.0 mg/kg/injection, schedule: Q04DX003 (ip), vehicle: saline",101 % of control
same,T/C,"dose: 400.0 mg/kg/injection, schedule: Q04DX003 (ip), vehicle: saline",99 % of control
COC(=O)/C(=C\Sc1ccccc1)NC(C)=O,T/C,"dose: 60.0 mg/kg/injection, schedule: Q01DX005 (ip), vehicle: Klucel (hydroxypropylcellulose) (HPC)",100 % of control
same,T/C,"dose: 120.0 mg/kg/injection, schedule: Q01DX005 (ip), vehicle: Klucel (hydroxypropylcellulose) (HPC)",98 % of control
same,T/C,"dose: 240.0 mg/kg/injection, schedule: Q01DX005 (ip), vehicle: Klucel (hydroxypropylcellulose) (HPC)",107 % of control
